Test results taken from ChEMBL document CHEMBL5291721, “A preclinical secondary pharmacology resource illuminates target-adverse drug reaction associations of marketed drugs” (Nat Commun, 2023).

How the values were obtained:
[1] = molecular target: 5-hydroxytryptamine receptor 2B (Homo sapiens, UniProt P41595); assay type: functional, cell-based
Adenosine receptor A2a = Adenosine receptor A2a (Homo sapiens, UniProt P29274)
[2] = molecular target: Gamma-aminobutyric acid receptor subunit alpha-1 (Rattus norvegicus, UniProt P62813); assay type: functional
[3] = molecular target: T1, 5-hydroxytryptamine receptor 3A (Homo sapiens, UniProt P46098); assay type: functional
T1 sequence (P46098 whole entry): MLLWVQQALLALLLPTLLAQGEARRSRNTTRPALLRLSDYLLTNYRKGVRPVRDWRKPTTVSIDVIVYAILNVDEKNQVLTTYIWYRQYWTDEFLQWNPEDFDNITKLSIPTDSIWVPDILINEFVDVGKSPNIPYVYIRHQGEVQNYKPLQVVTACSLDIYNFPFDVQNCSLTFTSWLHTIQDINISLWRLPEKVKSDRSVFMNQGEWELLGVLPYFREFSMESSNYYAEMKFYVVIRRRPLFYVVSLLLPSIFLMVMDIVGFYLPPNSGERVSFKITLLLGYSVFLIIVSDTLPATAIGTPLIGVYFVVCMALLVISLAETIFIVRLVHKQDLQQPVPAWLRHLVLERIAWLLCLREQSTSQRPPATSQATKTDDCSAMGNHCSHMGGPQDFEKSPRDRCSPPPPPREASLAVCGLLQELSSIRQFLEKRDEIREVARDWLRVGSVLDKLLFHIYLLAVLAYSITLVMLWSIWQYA

[4] = molecular target: T2, Alpha-2C adrenergic receptor (Homo sapiens, UniProt P18825); assay type: functional
T2 sequence (P18825 whole entry): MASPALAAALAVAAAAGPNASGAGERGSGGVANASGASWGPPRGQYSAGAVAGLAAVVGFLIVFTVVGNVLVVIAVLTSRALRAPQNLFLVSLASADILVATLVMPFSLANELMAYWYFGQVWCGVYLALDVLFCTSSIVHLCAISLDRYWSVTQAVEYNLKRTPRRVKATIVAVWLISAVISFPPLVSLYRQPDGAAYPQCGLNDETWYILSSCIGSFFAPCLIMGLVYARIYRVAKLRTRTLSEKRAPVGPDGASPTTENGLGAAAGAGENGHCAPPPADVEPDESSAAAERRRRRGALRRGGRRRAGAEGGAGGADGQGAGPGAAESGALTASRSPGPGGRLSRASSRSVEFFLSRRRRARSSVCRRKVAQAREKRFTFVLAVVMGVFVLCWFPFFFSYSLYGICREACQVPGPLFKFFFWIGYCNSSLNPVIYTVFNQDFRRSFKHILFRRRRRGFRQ

Adenosine receptor A3 = molecular target: T3, Adenosine receptor A3 (Homo sapiens, UniProt P0DMS8)
T3 sequence (P0DMS8 whole entry): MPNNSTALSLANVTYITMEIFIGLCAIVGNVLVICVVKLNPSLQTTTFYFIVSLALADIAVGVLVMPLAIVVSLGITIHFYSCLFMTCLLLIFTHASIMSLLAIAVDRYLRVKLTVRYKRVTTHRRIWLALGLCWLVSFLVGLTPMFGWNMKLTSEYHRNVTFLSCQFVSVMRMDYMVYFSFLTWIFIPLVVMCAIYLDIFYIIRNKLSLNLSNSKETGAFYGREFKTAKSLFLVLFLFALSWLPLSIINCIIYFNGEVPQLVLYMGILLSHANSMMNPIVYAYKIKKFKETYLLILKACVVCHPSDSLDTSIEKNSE

[5] = molecular target: T4, 5-hydroxytryptamine receptor 2C (Homo sapiens, UniProt P28335)
T4 sequence (P28335 whole entry): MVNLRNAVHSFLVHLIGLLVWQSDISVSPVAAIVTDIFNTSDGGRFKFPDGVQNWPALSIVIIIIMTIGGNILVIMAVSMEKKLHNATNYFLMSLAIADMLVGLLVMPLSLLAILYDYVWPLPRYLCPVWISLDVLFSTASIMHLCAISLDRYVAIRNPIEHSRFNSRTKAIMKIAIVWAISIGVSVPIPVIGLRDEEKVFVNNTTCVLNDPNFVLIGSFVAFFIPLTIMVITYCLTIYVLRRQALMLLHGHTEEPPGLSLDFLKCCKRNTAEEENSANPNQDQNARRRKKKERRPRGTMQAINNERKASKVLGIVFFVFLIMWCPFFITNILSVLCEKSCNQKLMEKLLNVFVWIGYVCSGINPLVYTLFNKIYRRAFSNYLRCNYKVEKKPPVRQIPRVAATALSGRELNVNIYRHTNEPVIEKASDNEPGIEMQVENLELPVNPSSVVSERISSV

Cannabinoid receptor 1 [6] = molecular target: T5, Cannabinoid receptor 1 (Homo sapiens, UniProt P21554); assay type: functional, cell-based
Cannabinoid receptor 1 [7] = molecular target: T5, Cannabinoid receptor 1; assay type: functional, cell-based; remark: listed apart in the source
Histamine H1 receptor = Histamine H1 receptor (Homo sapiens, UniProt P35367)
[8] = molecular target: T6, Muscarinic acetylcholine receptor M1 (Homo sapiens, UniProt P11229); assay type: functional
T6 sequence (P11229 whole entry): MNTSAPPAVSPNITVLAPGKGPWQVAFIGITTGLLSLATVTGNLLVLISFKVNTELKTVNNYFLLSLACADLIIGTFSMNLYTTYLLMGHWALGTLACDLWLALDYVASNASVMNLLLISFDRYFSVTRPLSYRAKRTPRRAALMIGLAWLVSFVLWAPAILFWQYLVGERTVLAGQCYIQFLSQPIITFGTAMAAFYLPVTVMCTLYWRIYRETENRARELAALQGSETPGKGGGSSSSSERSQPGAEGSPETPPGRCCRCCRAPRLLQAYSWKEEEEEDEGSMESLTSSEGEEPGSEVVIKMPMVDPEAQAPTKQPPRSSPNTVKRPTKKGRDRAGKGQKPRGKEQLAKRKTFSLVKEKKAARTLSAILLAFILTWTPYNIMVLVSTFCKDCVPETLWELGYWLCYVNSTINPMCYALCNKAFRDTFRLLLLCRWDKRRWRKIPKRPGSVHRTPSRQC
Further: assay procedure not described here.

Gamma-aminobutyric acid receptor subunit alpha-1, sequence (P62813 whole entry): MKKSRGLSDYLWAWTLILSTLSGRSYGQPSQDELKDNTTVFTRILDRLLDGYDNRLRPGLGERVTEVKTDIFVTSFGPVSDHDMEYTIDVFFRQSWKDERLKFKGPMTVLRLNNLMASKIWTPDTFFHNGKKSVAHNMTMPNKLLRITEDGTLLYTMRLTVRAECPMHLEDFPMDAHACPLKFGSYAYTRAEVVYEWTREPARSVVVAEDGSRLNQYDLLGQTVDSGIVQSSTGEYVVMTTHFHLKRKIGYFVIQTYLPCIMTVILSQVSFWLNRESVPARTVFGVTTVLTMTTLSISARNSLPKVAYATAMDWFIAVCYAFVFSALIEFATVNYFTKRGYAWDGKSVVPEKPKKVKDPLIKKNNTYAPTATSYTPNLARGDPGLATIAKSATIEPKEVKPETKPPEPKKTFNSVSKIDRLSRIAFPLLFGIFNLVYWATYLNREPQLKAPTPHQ
Adenosine receptor A2a, sequence (P29274 whole entry): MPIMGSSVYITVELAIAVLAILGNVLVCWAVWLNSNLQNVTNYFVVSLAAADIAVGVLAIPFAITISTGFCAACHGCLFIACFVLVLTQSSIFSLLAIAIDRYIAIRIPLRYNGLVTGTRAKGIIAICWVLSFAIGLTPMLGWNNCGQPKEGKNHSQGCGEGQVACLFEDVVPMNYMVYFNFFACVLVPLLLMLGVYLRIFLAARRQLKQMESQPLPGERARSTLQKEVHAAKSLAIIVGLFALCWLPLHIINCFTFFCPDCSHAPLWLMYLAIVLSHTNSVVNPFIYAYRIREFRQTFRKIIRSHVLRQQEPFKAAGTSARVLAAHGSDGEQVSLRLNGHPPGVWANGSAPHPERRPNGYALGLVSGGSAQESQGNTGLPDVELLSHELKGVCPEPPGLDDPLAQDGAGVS
5-hydroxytryptamine receptor 2B, sequence (P41595 whole entry): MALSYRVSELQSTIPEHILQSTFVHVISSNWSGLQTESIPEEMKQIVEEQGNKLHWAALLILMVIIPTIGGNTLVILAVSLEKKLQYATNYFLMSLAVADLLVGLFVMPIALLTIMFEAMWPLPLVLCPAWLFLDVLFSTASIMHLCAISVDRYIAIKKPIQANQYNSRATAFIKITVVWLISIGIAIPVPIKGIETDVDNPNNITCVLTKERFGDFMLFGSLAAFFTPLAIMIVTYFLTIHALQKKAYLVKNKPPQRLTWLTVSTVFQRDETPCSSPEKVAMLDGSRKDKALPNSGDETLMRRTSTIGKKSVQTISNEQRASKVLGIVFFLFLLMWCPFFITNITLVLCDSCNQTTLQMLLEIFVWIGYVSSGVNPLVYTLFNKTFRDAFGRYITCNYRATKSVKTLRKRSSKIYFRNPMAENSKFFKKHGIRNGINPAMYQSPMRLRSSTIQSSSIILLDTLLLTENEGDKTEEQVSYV
T5 sequence (P21554 whole entry): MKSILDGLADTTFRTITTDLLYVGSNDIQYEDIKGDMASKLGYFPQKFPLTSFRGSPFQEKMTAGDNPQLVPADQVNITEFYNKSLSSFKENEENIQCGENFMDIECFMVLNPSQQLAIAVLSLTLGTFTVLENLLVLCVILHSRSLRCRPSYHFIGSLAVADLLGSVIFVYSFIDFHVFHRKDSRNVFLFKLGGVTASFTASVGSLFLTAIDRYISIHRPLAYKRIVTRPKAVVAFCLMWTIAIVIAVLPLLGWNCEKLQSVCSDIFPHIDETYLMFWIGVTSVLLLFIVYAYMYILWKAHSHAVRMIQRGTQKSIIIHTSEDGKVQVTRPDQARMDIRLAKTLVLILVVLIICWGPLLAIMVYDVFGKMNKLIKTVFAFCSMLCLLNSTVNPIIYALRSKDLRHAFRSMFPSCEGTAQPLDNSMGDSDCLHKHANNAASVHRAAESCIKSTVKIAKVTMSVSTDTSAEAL
Histamine H1 receptor, sequence (P35367 whole entry): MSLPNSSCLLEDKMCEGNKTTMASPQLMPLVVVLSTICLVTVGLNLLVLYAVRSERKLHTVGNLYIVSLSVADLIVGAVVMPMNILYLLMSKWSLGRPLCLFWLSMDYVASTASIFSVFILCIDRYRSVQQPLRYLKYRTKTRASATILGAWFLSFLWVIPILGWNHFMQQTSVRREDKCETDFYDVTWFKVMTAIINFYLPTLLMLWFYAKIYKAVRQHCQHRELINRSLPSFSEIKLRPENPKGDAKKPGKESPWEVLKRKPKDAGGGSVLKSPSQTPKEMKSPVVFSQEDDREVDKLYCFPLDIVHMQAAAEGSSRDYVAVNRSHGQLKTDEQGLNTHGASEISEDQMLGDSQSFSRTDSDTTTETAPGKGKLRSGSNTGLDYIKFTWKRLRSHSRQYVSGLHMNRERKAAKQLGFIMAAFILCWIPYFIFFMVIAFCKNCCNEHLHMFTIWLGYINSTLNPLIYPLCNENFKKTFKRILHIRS

| SMILES | AC50 [1] [µM] | AC50 (Adenosine receptor A2a) [µM] | AC50 [2] [µM] | AC50 [3] [µM] | AC50 [4] [µM] | AC50 (Adenosine receptor A3) [µM] | AC50 [5] [µM] | AC50 (Cannabinoid receptor 1 [6]) [µM] | AC50 (Cannabinoid receptor 1 [7]) [µM] | AC50 (Histamine H1 receptor) [µM] | AC50 [8] [µM] |
| --- | --- | --- | --- | --- | --- | --- | --- | --- | --- | --- | --- |
| CN(CCCN1c2ccccc2CCc2ccccc21)CC(=O)c1ccc(Cl)cc1 [LOFEPRAMINE] | > 30 | > 30 | > 30 | > 30 | 17 | 18 | 2.7 | > 30 | 3.5 | 0.65 | – |
| CN(C)CCCN1c2ccccc2Sc2ccccc21 [PROMAZINE] | 5.7 | > 30 | > 10 | > 10 | 0.82 | > 30 | 0.15 | > 30 | > 30 | – | – |
| O=C(O)CCn1c2c(c3ccccc31)C[C@H](NS(=O)(=O)c1ccc(F)cc1)CC2 [RAMATROBAN] | > 10 | > 30 | > 10 | > 30 | > 10 | > 30 | > 30 | – | – | > 10 | > 10 |
| NS(=O)(=O)c1cc(Cl)c(Cl)c(S(N)(=O)=O)c1 [DICHLORPHENAMIDE] | > 10 | > 10 | > 10 | > 30 | > 10 | > 10 | > 30 | > 30 | – | > 10 | > 10 |
| CN1C(=O)N(C)C2C1N(C)C(=O)N2C (centres undefined) [MEBICAR] | > 30 | – | > 30 | > 30 | 14 | – | > 30 | > 30 | > 30 | > 30 | > 30 |
| CN(C/C=C/c1ccccc1)Cc1cccc2ccccc12 [NAFTIFINE] | > 10 | > 30 | > 10 | > 30 | 4.8 | > 30 | > 30 | > 30 | > 30 | > 10 | > 10 |
| NS(=O)(=O)c1cc2c(cc1Cl)NC(CC1CCCC1)NS2(=O)=O (centres undefined) [CYCLOPENTHIAZIDE] | > 30 | – | > 30 | > 30 | > 30 | – | > 30 | > 30 | > 30 | > 30 | > 30 |
| N/N=c1/cc2c(n[nH]1)CCN(C(=O)c1ccccc1)C2 [ENDRALAZINE] | > 30 | – | > 30 | > 30 | > 30 | – | > 30 | > 30 | > 30 | > 30 | > 30 |
| CC(=O)N(CC(O)CO)c1c(I)c(C(=O)NCC(O)CO)c(I)c(C(=O)NCC(O)CO)c1I (centres undefined) [IOHEXOL] | > 10 | > 30 | > 10 | > 30 | > 10 | > 30 | > 30 | > 30 | > 30 | > 10 | > 10 |
| N[C@@H](CSCC(=O)O)C(=O)O [CARBOCYSTEINE] | > 30 | > 30 | > 30 | > 30 | > 30 | > 30 | > 30 | > 30 | > 30 | > 30 | > 30 |
| O=P(O)(O)C(O)(Cc1cccnc1)P(=O)(O)O [RISEDRONIC ACID] | > 30 | > 30 | > 30 | > 30 | > 30 | > 30 | > 30 | > 30 | > 30 | – | – |
| C=C1C[C@@H]2[C@H](CC[C@]3(C)C(=O)CC[C@@H]23)[C@@]2(C)C=CC(=O)C=C12 [EXEMESTANE] | 36 | > 30 | > 10 | > 30 | > 10 | > 30 | > 30 | > 30 | > 30 | > 10 | > 10 |
| Nc1ccc(/N=N/c2ccccc2)c(N)n1 [PHENAZOPYRIDINE] | 24 | – | > 30 | 3.3 | 3.7 | – | 1.91 | > 30 | > 30 | 4.5 | 4.1 |
| COCC1=C(C(=O)OC(C)OC(=O)OC(C)C)N2C(=O)[C@@H](NC(=O)/C(=N\OC)c3csc(N)n3)[C@H]2SC1 (some centres undefined) [CEFPODOXIME PROXETIL] | > 30 | – | > 30 | > 30 | > 30 | – | > 30 | > 30 | > 30 | > 30 | > 30 |
| CO/N=C(\C(=O)N[C@@H]1C(=O)N2C(C(=O)OCOC(=O)C(C)(C)C)=C(C)CS[C@H]12)c1csc(N)n1 | > 30 | – | > 30 | > 30 | > 30 | – | > 30 | > 30 | > 30 | > 30 | > 30 |
| CC(=O)O[C@]1(C(C)=O)CC[C@H]2[C@@H]3C[C@H](C)C4=CC(=O)CC[C@]4(C)[C@H]3CC[C@@]21C [MEDROXYPROGESTERONE ACETATE] | – | > 30 | – | – | – | > 30 | – | – | – | – | – |
| CC(=O)N[C@H]1[C@H]([C@H](O)[C@H](O)CO)OC(C(=O)O)=C[C@@H]1N=C(N)N [ZANAMIVIR] | > 30 | > 30 | > 10 | > 30 | > 30 | > 30 | > 30 | – | – | > 30 | > 30 |
| CN(C)[C@@H]1C(O)=C(C(N)=O)C(=O)[C@@]2(O)C(O)=C3C(=O)c4c(O)ccc(Cl)c4[C@@H](O)[C@H]3C[C@@H]12 [DEMECLOCYCLINE] | > 10 | > 10 | > 10 | > 30 | > 10 | > 10 | > 30 | – | – | > 10 | > 10 |
| C[N+](C)(C)CCOC(N)=O [CARBAMOYLCHOLINE] | > 30 | > 10 | > 10 | > 10 | > 10 | > 10 | > 30 | > 30 | > 30 | – | – |
